Experimental data as given in US4839344A, “Polypeptide compounds having growth hormone releasing activity” (Eastman Kodak Company, priority 1987, dated 1989).
Values joined by “and” are separate entries in the source; they are usually repeats but may differ in a detail not shown here. Identical values can stand only once. Square brackets hold non-standard residues; d marks the D form. Ends that are not written are not given here.

Tested on: growth hormone (GH) release
Assay: In Vivo GH Release in Rats (serum GH by RIA)
Design: species or system immature female Sprague-Dawley rats
Settings: rat serum, i.v., mean ± SEM, six rats
[1] = total dose 10 μg, sacrificed 10 minutes after final injection

| Substance | GH Released by Compound in Column A [1] | GH Released by Compound in Column A (total dose 20 (ng as printed), sacrificed 30 minutes after final injection) |
| --- | --- | --- |
| AC[dW]AW[dF]KC-NH2 (cysteine pairing not given here) [Compound 9308] | 10 ± 1 ng/mL |  |
| CAH[dW]AW[dF]KC-NH2 (cysteine pairing not given here) [Compound 8758] | 37 ± 8 ng/mL and 26 ± 9 ng/mL | 52 ± 7 ng/mL |
